Test results: the RepoRT retention time repository (doi:10.1007/s00216-021-03828-0)

Legend:
Details in all cases: stereoisomer not certain
[1] = RP, Merck Supelco Ascentis Express C18, 100 × 2.1 mm, 2 µm, 40 °C, 0.2 mL/min, estimated dead time 1.1 min; A: water + 0.1% formic acid, pH 3; B: acetonitrile + 0.1% formic acid, pH 3; gradient (min/%B) 0/5 2/5 17/99.9 20/99.9
[2] = as above; remark: listed apart in the source
[3] = RP, Merck Supelco Ascentis Express C18, 100 × 2.1 mm, 2 µm, 40 °C, 0.4 mL/min, estimated dead time 0.55 min; A: water + 0.1% formic acid, pH 3; B: acetonitrile + 0.1% formic acid, pH 3; gradient (min/%B) 0/5 2/5 17/99.9 20/99.9
[4] = as above; remark: listed apart in the source
[5] = RP, Merck Supelco Ascentis Express C18, 100 × 2.1 mm, 2 µm, 39 °C, 0.3 mL/min, estimated dead time 0.73 min; A: water + 0.1% formic acid, pH 3; B: acetonitrile + 0.1% formic acid, pH 3; gradient (min/%B) 0/5 2/5 17/99.9 20/99.9
[6] = RP, Merck Supelco Ascentis Express C18, 100 × 2.1 mm, 2 µm, 40 °C, 0.25 mL/min, estimated dead time 0.88 min; A: water + 0.1% formic acid, pH 3; B: acetonitrile + 0.1% formic acid, pH 3; gradient (min/%B) 0/5 2/5 17/99.9 20/99.9
[7] = RP, Merck Supelco Ascentis Express C18, 100 × 2.1 mm, 2 µm, 40 °C, 0.35 mL/min, estimated dead time 0.63 min; A: water + 0.1% formic acid, pH 3; B: acetonitrile + 0.1% formic acid, pH 3; gradient (min/%B) 0/5 2/5 17/99.9 20/99.9

LC retention time [1]	LC retention time [2]	LC retention time [3]	LC retention time [4]	LC retention time [5]	LC retention time [6]	LC retention time [7]	SMILES
16.4 min	16.4 min	14.3 min	14.2 min	15 min	15.6 min	14.6 min	CCCCCCCCCCCCCC(=O)O [MYRISTATE]
7.03 min	7.03 min	5.28 min	5.23 min	4.34 min	6.4 min	5.55 min	O=C(O)c1ccccc1 [BENZOATE]
5.12 min	5.11 min	3.45 min	3.42 min	4.09 min	4.54 min	3.72 min	O=C(O)CNC(=O)c1ccccc1 [HIPPURATE]
3.77 min	3.77 min	1.91 min	1.87 min	2.52 min	3.02 min	2.16 min	CSCC[C@H](NC=O)C(=O)O [N-FORMYL-L-METHIONINE]
4.96 min	4.97 min	3.52 min	3.5 min	4.07 min	4.45 min	3.77 min	CC(=O)NCCc1c[nH]c2ccc(O)cc12 [N-ACETYLSEROTONIN]
5 min	4.99 min	3.36 min	3.34 min	4.02 min	4.43 min	3.64 min	O=C(O)Cc1ccc(O)cc1 [P-HYDROXYPHENYLACETATE]
2.23 min	2.26 min	1.11 min	1.1 min	1.46 min	1.77 min	1.26 min	NC(Cc1ccccc1)C(=O)O (configuration not stated) [PHENYLALANINE]
4.17 min	4.15 min	2.28 min	2.29 min	3.33 min	3.61 min	2.57 min	O=C(O)c1cc(=O)c2cccc(O)c2[nH]1 [XANTHURENATE]
18.2 min	18.1 min	16.1 min	16 min	16.8 min	17.4 min	16.4 min	CCCCCCCCCCCC=CCCCCC(=O)[O-] [PETROSELINATE]
5.96 min	5.92 min	4.58 min	4.54 min	5.15 min	5.43 min	4.81 min	CC1NC(=O)NC1CCCCCC(=O)O (configuration not stated) [DETHIOBIOTIN]
2.38 min	2.48 min	1.22 min	1.16 min	1.64 min	1.92 min	1.35 min	O=C(O)Cc1cc(O)ccc1O [HOMOGENTISATE]
15.9 min	15.9 min	13.9 min	13.9 min	14.7 min	15.2 min	14.2 min	CCC=CCC=CCC=CCC=CCC=CCCCC(=O)O [EICOSAPENTAENOATE]
5.14 min	5.13 min	3.66 min	3.63 min	4.22 min	4.61 min	3.89 min	O=C(O)CCCCCC(=O)O [6-CARBOXYHEXANOATE]
14.7 min	14.7 min	12.6 min	12.5 min	13.3 min	13.9 min	12.9 min	CCCCCCCCCCCC(=O)O [LAURATE]
5.43 min	5.44 min	3.95 min	3.93 min	4.5 min	4.9 min	4.18 min	CC(=O)Oc1ccccc1 [PHENYL ACETATE]
5.44 min	5.44 min	4.14 min	4.11 min	4.62 min	4.96 min	4.34 min	O=C(O)CCCCC1SCC2NC(=O)NC21 (configuration not stated) [BIOTIN]

More lines, now with the values behind:

SMILES	LC retention time [1]	LC retention time [2]	LC retention time [3]	LC retention time [4]	LC retention time [5]	LC retention time [6]	LC retention time [7]
CC12CCC(=O)C=C1CCC1C2C(O)CC2(C)C1CCC2(O)C(=O)CO (configuration not stated) [CORTISOL]	8.04 min	8.03 min	6.69 min	6.65 min	7.17 min	7.53 min	6.88 min
O=Cc1ccc(O)cc1 [4-HYDROXYBENZALDEHYDE]	5.47 min	5.46 min	3.64 min	3.59 min	4.34 min	4.82 min	3.94 min
Cn1c(=O)[nH]c2ncn(C)c2c1=O [PARAXANTHINE]	3.98 min	3.96 min	2.16 min	2.15 min	2.81 min	3.33 min	2.47 min
CCC(C)C(N)C(=O)O (configuration not stated) [ISOLEUCINE]	1.43 min	1.45 min	0.697 min	0.717 min	0.93 min	1.14 min	0.793 min
NC(Cc1c[nH]c2ccc(O)cc12)C(=O)O (configuration not stated) [5-HYDROXYTRYPTOPHAN]	1.75 min	1.71 min	0.853 min	0.81 min	1.1 min	1.35 min	0.993 min
Cc1ncc(CO)c(C(=O)O)c1O [4-PYRIDOXATE]	1.57 min	1.57 min	0.767 min	0.757 min	1.02 min	1.23 min	0.877 min
OCCc1c[nH]c2ccccc12 [INDOLE-3-ETHANOL]	7.27 min	7.25 min	5.61 min	4.78 min	6.22 min	6.66 min	5.95 min
NC(=O)Cc1c[nH]c2ccccc12 [INDOLE-3-ACETAMIDE]	5.84 min	5.83 min	4.27 min	4.23 min	4.85 min	5.28 min	4.51 min
Nc1nc2c(ncn2C2CC(O)C(CO)O2)c(=O)[nH]1 (configuration not stated) [DEOXYGUANOSINE]	1.44 min	1.47 min	0.703 min	0.707 min	0.943 min	1.13 min	0.82 min
O=C(O)C(=O)Cc1c[nH]c2ccccc12 [INDOLE-3-PYRUVATE]	7.11 min	7 min	5.52 min	5.58 min	6.08 min	6.47 min	5.84 min
CC(=O)N1CCCC1C(=O)O (configuration not stated) [N-ACETYLPROLINE]	2.76 min	2.77 min	1.46 min	1.39 min	1.89 min	2.22 min	1.58 min
NC(Cc1cc(I)c(Oc2ccc(O)c(I)c2)c(I)c1)C(=O)O (configuration not stated) [LIOTHYRONINE]	8.2 min	8.19 min	7.03 min	7 min	7.45 min	7.75 min	7.2 min
CC(=O)OCC(=O)C1(O)CCC2C3CCC4=CC(=O)CCC4(C)C3C(O)CC21C (configuration not stated) [CORTISOL 21-ACETATE]	9.62 min	9.62 min	8.09 min	8.05 min	8.64 min	9.05 min	8.33 min
CC(=O)NC(CS)C(=O)O (configuration not stated) [N-ACETYLCYSTEINE]	1.91 min	1.92 min	0.95 min	0.937 min	1.26 min	1.52 min	1.09 min
Cc1cc2nc3c(=O)[nH]c(=O)nc-3n(CC(O)C(O)C(O)CO)c2cc1C (configuration not stated) [RIBOFLAVIN]	5.39 min	5.38 min	4.24 min	4.23 min	4.65 min	4.94 min	4.41 min
